From US3985798A, “11α-HOMO-PROSTANOIC ACIDS AND ESTERS” (American Cyanamid Company, priority 1975, dated 1976)

Test system: basal gastric acid secretion
Assay: Inhibition of Total Acid Output in the Acute Gastric Fistula Rat (inhibition of basal gastric acid secretion)
Assay type: in vivo, Female Sprague-Dawley rats
Conditions: 10 mg./kg. intraduodenal, vs concurrent vehicle control; for Total Acid Output % Inhibition, 60"(A): sample A, 60 minutes; for Total Acid Output % Inhibition, 120"(B): sample B, 120 minutes
Excerpt: The natural prostaglandins have a broad spectrum of biological properties. Because of these diverse effects their potential therapeutic use is limited. […] On the other hand, they do inhibit gastic acid secretion and accordingly are potentially useful for the treatment of peptic ulcers, gastric hyperacidity and gastric erosion. Inhibition of basal gastric acid secretion can be determined by the following procedure. Female Sprague-Dawley rats weighing 140-160 grams are fasted in individual cages for 18-24 hours. The rats are then lightly anesthetized with ether and their front teeth extracted to avoid destruction of the plastic cannula. A midline incision is then made and the stomach and duodenum exposed. A flanged polyvinyl tube is inserted into the fundic portion of the stomach and secured with a purse string suture line using 4-0 Mersilene. The rat is then dosed by injection of the compound into the duodenum (1.0 ml. per 100 gram body weight). After dosing, the abdominal wall and skin are closed using metal wound clips. The rat is replaced in a cage containing a longitudinal slit to allow the polyvinyl tube to hang freely. An 8 ml. plastic collecting tube is attached to the flanged cannula and hangs freely below the cage. The first 30 minute sample is discarded designating this time as zero. The collecting tube is attached again and samples removed at the end of 60 and 120 minutes. These samples are referred to as A and B in the table. The hourly samples are then transferred to a 15 ml. centrifuge and centrifuged for 5-10 minutes. Total and sediment volume are then recorded with the supernatant volume being used as volume of secretion. A 1 ml. or less aliquot is then removed and placed in a 50 ml. beaker containing 10 ml. of distilled water. This sample is then titrated using 0.01N NaOH to pH 7.0 using a Beckman zeromatic pH meter, Volume, titratable acidity (meq/L), and total acid output (ueg/hour) are recorded. Percent inhibition is determined by comparison with the appropriate control. Groups of three rats were used for preliminary testing, and groups of six rats were used for dose-response evaluations. All compounds are administered in a vehicle consisting of 0.5% methocel, 0.4% Tween 80, and saline at a constant volume of 1 ml./100 gram rat. Samples are dispersed by sonification. Percent inhibition is calculated on basis of concurrent vehicle control.
In Table A which follows is given the effect on total acid output after 120 minutes of a 10 mg./kg. intraduodenal dose of representative compounds of this invention.

Row | Structure (SMILES) | Total Acid Output % Inhibition, 60"(A) [%] | Total Acid Output % Inhibition, 120"(B) [%]
1 | CCCCC[C@H](O)/C=C/[C@H]1C[C@H](O)CC(=O)[C@@H]1CCCCCCC(=O)O (relative stereo) [dl-11a-homoprostaglandin E1, 9-oxo-11α,15-dihydroxy-11a-homo-13-trans-prostenoic acid] | 69 | 74
2 | CCCCC[C@H](O)/C=C/[C@H]1CC=CC(=O)[C@@H]1CCCCCCC(=O)O (relative stereo) [dl-11a-homoprostaglandin A1, 9-oxo-15-hydroxy-11a-homo-10,13-trans-prostadienoic acid] | 35 | 33
3 | CCCCC[C@@H](O)/C=C/[C@H]1CC=CC(=O)[C@@H]1CCCCCCC(=O)O (relative stereo) [9-oxo-15-epi-hydroxy-11a-homo-10,13-trans-prostadienoic acid] | 43 | 47
